The results in this text go back to US4581366A, “Aldose reductase inhibition by spiro indoline derivatives” (Imperial Chemical Industries PLC, priority 1983, dated 1986).

Structures are written as SMILES.

Assay [1] deals with T1, aldose reductase (Bos taurus, UniProt P16116).
T1 construct: partially purified aldose reductase is isolated in known manner from bovine lenses; from tissue; host or cells: bovine lens
The assay can be described thus: in vitro inhibition of partially purified aldose reductase from bovine lenses (reduction of glucose to sorbitol, spectrophotometric). It counts as biochemical. The settings on record: read-out: IC50 (concentration necessary to inhibit to the extent of 50% the enzyme's ability to reduce glucose to sorbitol). How it is done: Thus, partially purified aldose reductase is isolated in known manner from bovine lenses. The percentage inhibition of this enzyme's ability in vitro to reduce aldoses to polyhydric alcohols, and particularly to reduce glucose to sorbitol, caused by a test compound is then determined using standard spectrophotometric methods.
(§1) In the above in vivo test, an effective dose (ED) may be defined as the oral dose at which the residual sorbitol level in the sciatic nerve is reduced to a level similar to that in the sciatic nerve of normal, undosed rats. In this test the novel compound of formula I has an ED of approximately 1.76 mg/kg. as the racemic form and of approximately 0.62 mg/kg. as the dextrorotatory, optically active form.

Assay [2] relates to aldose reductase. The assay can be described thus: in vivo aldose reductase inhibition in streptozotocin-diabetic rats (residual sorbitol in sciatic nerve). More on the design: species or system rat. The settings on record: dosed daily for 2-5 days, 2-4 hours after final dose. How it is done:
Thus, rats are made diabetic (as evidenced by severe glucosuria being present) by dosing with streptozotocin. The animals are then dosed daily with the test compound for 2-5 days. The animals are then killed 2-4 hours after the final dose and the eye lenses and/or sciatic nerves are removed. After a standard work-up procedure the residual sorbitol levels in each tissue are determined by gas liquid chromatography after conversion to the polytrimethysilyl derivatives. Inhibition of aldose reductase in vivo is then assessed by comparing the residual sorbitol levels in tissues from the dosed diabetic group of rats with those of an undosed group of diabetic rats and an undosed, normal group of rats.
as §1

As to `O=C1NC(=O)C2(N1)C(=O)N(Cc1ccc(Br)cc1F)c1c(Cl)cccc12` (racemic) [compound of formula I, racemic form, (±)-1'-(4-bromo-2-fluorobenzyl)-7'-chloro-spiro[imidazolidine-4,3'-indoline]-2,2',5-trione], at aldose reductase [1], the IC50 is approximately 24 nM. Also, in the assay with aldose reductase [2], the “effective dose (ED): oral dose at which the residual sorbitol level in the sciatic nerve is reduced to a level similar to that of normal, undosed rats” value is listed as “approximately 1.76 mg/kg”.

Regarding `O=C1NC(=O)C2(N1)C(=O)N(Cc1ccc(Br)cc1F)c1c(Cl)cccc12` (single isomer, unassigned; (+)) [(+)-1'-(4-bromo-2-fluorobenzyl)-7'-chloro-spiro[imidazolidine-4,3'-indoline]-2,2',5-trione], at aldose reductase [1], the IC50 is approximately 9.8 nM. For the same compound, the “effective dose (ED): oral dose at which the residual sorbitol level in the sciatic nerve is reduced to a level similar to that of normal, undosed rats” value with aldose reductase [2] is reported as “approximately 0.62 mg/kg”.
